# Experimental data from patent US7084141B2, “Inhibitors of macrophase migration inhibitory factor and methods for identifying the same” (Avanir Pharmaceuticals, priority 2001, dated 2006).
# Read-outs that look alike come from different tables or passages of the source.
# What was measured:
# Assay type in all cases: in vivo, mouse
# [1] = system: serum MIF; test: Serum MIF after LPS/galactosamine challenge in mice (ELISA)
# Procedure: Doses of lipopolysacchraride (LPS) were made fresh prior to each experiment. LPS (Escherichia Coli 0111:B4, Sigma) was reconstituted by adding 0.5% TEA (1 ml USP water+[…] Triethylamine (Pierce)) to a vial of 5 mg endotoxin. Once reconstituted, the solution was incubated at 37° C. for 30 minutes. Subsequently, the solution was sonicated in a 56–60° C. bath sonicator for 30 seconds 3 times. Following sonication the mixture was vortexed for 3 minutes continuously. The stock solution of LPS was then ready for use.
# Ten 10-week-old (20±2 gram) female BALB/c mice (Charles River Laboratories, Kingston, N.Y.) were housed in a group of 5 per cage with free access to food and water and were acclimatized for at least one week prior to experimentation. On the day of experiment, mice were weighed and randomly distributed into group of 10 animals of equal mean body weight. […] Mouse serum Il-1β and TNF-α were measured by ELISA using a “mouse IL 1β immunoassay or mouse TNF-α immunoassay” kits (R&D System Minneapolis, Minn.) following manufacturer's direction. Serum MIF concentrations in mouse serum were quantified by a sandwich ELISA (ChemiKine MIF Kit, Chemicon, San Diego, Calif.). Samples were analyzed in duplicate, and results were averaged. […]
# [2] = system: serum MIF; test: Collagen induced arthritis model, serum MIF (ELISA); settings: day 74, compared to untreated CIA samples
# Procedure: (§1) In another experiment, fifteen DBA/1J mice, age 10–12 weeks were immunized on day 0 at the base of the tail with bovine collagen type II (CII 100 μg), emulsified in Freunds complete adjuvant (FCA; GibcoBRL). On day 21, a second dose of collagen was administered via the same route, emulsified in Freunds incomplete adjuvant. On day 28 the mice were injected subcutaneously with 100 μg of LPS (055:B5). On day 71 the mice were injected i.p. with 40 μg LPS (0111:B4). Groups and treatment protocol were the same as described as above. On day 74 blood samples were collected and cytokines were measured.
# [3] = system: serum TNF-α; test: Serum TNF-α after LPS challenge in mice (ELISA); settings: 20 mg/kg compound, LPS 5 mg/kg, four hours
# Procedure: (§2) Ten 10-week-old (20±2 gram) female BALB/c mice (Charles River Laboratories, Kingston, N.Y.) were housed in a group of 5 per cage with free access to food and water and were acclimatized for at least one week prior to experimentation. On the day of experiment, mice were weighed and randomly distributed into group of 10 animals of equal mean body weight. Mice were injected i.p. with 200 μL of formulated compound 7e or buffer alone immediately before the i.p. injection of LPS (Escherichia coli 0111:B4, 10 mg/kg or 5 mg/kg body weight) and β-D-galactosamine (50 mg/kg body weight). […] Mouse serum Il-1β and TNF-α were measured by ELISA using a “mouse IL 1β immunoassay or mouse TNF-α immunoassay” kits (R&D System Minneapolis, Minn.) following manufacturer's direction. Serum MIF concentrations in mouse serum were quantified by a sandwich ELISA (ChemiKine MIF Kit, Chemicon, San Diego, Calif.). Samples were analyzed in duplicate, and results were averaged.
# (§3) An initial control experiment was conducted to determine the base line levels of endogenous MIF in the murine model system (female Balb/c mice), and further to determine the rate and extent of increase in endogenous MIF following treatment with LPS (10 mg/kg). […] The level of MIF in serum was measured by HPLC as described above at 0, 2, 5 and 6 hours following LPS/galactosamine treatment. […]
# [4] = system: serum TNF-α; test: Collagen induced arthritis model, serum TNF-α (ELISA); settings: day 74, compared to untreated CIA samples
# Procedure: as §1
# [5] = system: DBA/1LacJ mice; test: Collagen induced arthritis model, paw thickness; settings: day 74, eight doses at 0.4 mg/dose; vehicle 1.99 mm; p<0.05
# Procedure: Twenty DBA/1LacJ mice, age 10–12 weeks, were immunized on day 0 at base of the tail with bovine collagen type II (CII 100 μg) emulsified in Freunds complete adjuvant (FCA; GibcoBRL). On day 7, a second dose of collagen was administrated via the same route (emulsified in Freunds incomplete adjuvant). On Day 14 mice were injected subcutaneously with 100 mg of LPS (055:B5). On day 70 mice were injected 40 μg LPS (0111:B4) intraperitoneally. Groups were divided according paw thickness, which was measured by a caliper, after randomization, to create a balanced starting group. Compound in buffer was given to mice on days 71, 72, 73, and 74 (total eight doses at 0.4 mg/dose, approximately 20 mg/kg of body weight). Mice were then examined on day 74 by two observers for paw thickness. FIG. 14 sets forth the experimental timeline. In this experiment, subsided mice (decline of full-blown arthritis) were treated with a final i.p. injection of LPS on day 70 to stimulate cytokine production as well as acute inflammation.
# [6] = system: BALB/c mice sensitized with β-D-galactosamine
# [7] = system: serum IL-1β; test: Serum IL-1β after LPS challenge in mice (ELISA); settings: 20 mg/kg compound, LPS 5 mg/kg, four hours
# Procedure: as §2, §3
smiles,measurement,setting,value
Cn1c(=O)c([N+](=O)[O-])c(N2CCN(C(=O)c3ccco3)CC2)c2ccccc21 [compound 7e],decrease in serum MIF,"[1]; 5 mg/kg LPS, four hours following treatment, p=0.0003",60%
same,level of circulating MIF,"[1]; 10 mg/kg LPS, 20 mg/kg i.p., p=0.05",significant decrease in the level of circulating MIF
same,serum MIF levels,[2],reduced serum MIF levels
same,serum TNF-α level,[3],reductions
same,serum TNF-α levels,[4],more significant inhibition of serum TNF-α levels
same,edema of the paw (paw thickness),[5],1.87 mm
same,survival at 12 hours,"[6]; 1 mg/kg LPS, 20 mg/kg compound, neutralized by 300 μg/kg human recombinant MIF",significantly more (p<0.01) mice survive
same,75% Animal Death,[6]; LPS Dosage 0.1 mg/kg,>100 h
same,75% Animal Death,[6]; LPS Dosage 0.5 mg/kg,>100 h
same,75% Animal Death,[6]; LPS Dosage 2 mg/kg,>100 h
same,75% Animal Death,[6]; LPS Dosage 5 mg/kg,32.0 h
same,75% Animal Death,[6]; LPS Dosage 10 mg/kg,18.0 h
same,75% Animal Death,[6]; LPS Dosage 40 mg/kg,11.6 h
same,survival,"[6]; lethal dose of LPS (2, 5 and 10 mg/kg), 20 mg/kg i.p., control 6%, p=0.0004",47%
same,serum IL-1β level,[7],reductions
